Patent publication US5441935A, “Growth factor receptors” (Imperial Cancer Research Technology Ltd., priority 1987, dated 1995)
Read-outs that look alike come from different tables or passages of the source. Non-standard residues stand in square brackets, D forms with d. Residues, ends and D or L forms follow the SMILES beside them. No end group written: not given here. Tyr(3-I) = N[C@@H](Cc1ccc(O)c(I)c1)C(=O)O

What was measured:
[1] = biological target: T1, Mr 75000-85000 protein (Mus musculus, UniProt P21729); assay: ^125 I-GRP affinity labelling (EGS cross-linking) of the Mr 75000-85000 protein in Swiss 3T3 cells; type: binding
T1 construct: endogenous in cells; host or cells: Swiss 3T3 cells (intact, confluent and quiescent)
T1 sequence (P21729 whole entry): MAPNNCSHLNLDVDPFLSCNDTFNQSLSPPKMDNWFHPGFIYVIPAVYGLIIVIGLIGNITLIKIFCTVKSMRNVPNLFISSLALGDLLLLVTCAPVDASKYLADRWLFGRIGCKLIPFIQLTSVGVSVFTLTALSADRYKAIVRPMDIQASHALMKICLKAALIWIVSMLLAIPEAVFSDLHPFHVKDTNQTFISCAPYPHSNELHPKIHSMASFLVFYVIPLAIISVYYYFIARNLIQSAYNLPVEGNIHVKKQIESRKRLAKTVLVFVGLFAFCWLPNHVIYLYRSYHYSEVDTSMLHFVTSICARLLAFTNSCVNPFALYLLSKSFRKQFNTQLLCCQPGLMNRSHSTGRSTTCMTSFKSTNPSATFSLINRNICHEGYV
Experimental: After 2.5 h the cells were washed three times at 15° C. with phosphate buffered saline (PBS) and then incubated for 15 min at 15° C. in 1 ml of binding medium, pH 7.4 in the presence of the appropriate cross-linking agent at the concentration indicated. The cross-linking agents (EGS, DSS, DSP and BSCOES) were dissolved in dimethyl sulphoxide immediately prior to use and were added to medium to give a final concentration of dimethylsulphoxide of 1-2%. The cultures were rapidly rinsed twice with PBS at 4° C. and solubilized in 0.1 ml of 2× sample buffer 0.2M Tris-HCl, pH 6.8, 10% (w/v) glycerol, 6% sodium dodecyl sulphate (SDS) (w/v) 4% β-mercaptoethanol (v/v) and 2 mM ethylenediaminetetraacetic acid. Samples were immediately heated at 100° C. for 3- 5 min and analysed by either one or two-dimensional gel electrophoresis.
Slab gel electrophoresis was performed using 7.5% acrylamide in the separating gel and 5% in the stacking gel, and 0.1% SDS (31). After electrophoresis gels were stained, destained and dried down onto paper for autoradiography with Fuji X-ray film (Fuji Photo Film Co. Ltd. Japan). Dried gels were exposed to film for 4-8 days. Two-dimensional gel electrophoresis was performed as described by O'Farrell (32) using isoelectric focusing in the 1st dimension and SDS-polyacrylamide gel electrophoresis (SDS-PAGE) (8% polyacrylamide) in the second dimension. The samples prepared for isoelectric focusing containing 1.4% LKB ampholytes, pH 5-7, plus 0.6% LKD ampholytes, pH,3.5-10, 6M urea, and 2% Nonidet P-40. The Mr 75000-85000 band from autoradiograms was scanned using a Joyce-Loebl double beam densitometer and the areas under specific peaks were measured with a Hewlett-Packard digitizer.
FIG. 4. […] Values are expressed as percentage of the specific binding obtained in the absence of antagonists. […] Each point represents the mean of 3 determinations. […] Specific binding (B) is expressed in pmol/10^6 cells and is shown in a double-reciprocal plot. Each point represents the mean of duplicate determinations. […] After 2 hours, the cultures were washed twice with binding medium then incubated in 1 ml containing 6 mM ethylene glycol bis (succinimidylsuccinate) (EGS) at pH 7.4 for 15 minutes at 15° C. The cultures were then washed twice with cold phosphate-buffered saline and solubilised in 0.1 ml of 2× sample buffer, then immediately heated at 100° C. for 5 minutes and electrophoresed on a 10% polyacrylamide gel.
After the incubation period cultures were treated with […] EGS as described in Materials and Methods. Each value is expressed as a percentage of the level of the Mr 75000-85000 protein obtained with no additions (-). Other experimental details are as described in Materials and Methods.

[2] = tested on: Swiss 3T3 cells; conditions: reference (13); cited from earlier work
[3] = biological target: T2, GRP receptor (Mus musculus, UniProt P21729); conditions: reference (13); cited from earlier work
T2 construct: endogenous in cells; host or cells: Swiss 3T3 cells (intact, confluent and quiescent)
T2 sequence (P21729 whole entry): as above

[4] = tested on: Swiss 3T3 cells; assay: DNA synthesis by [^3 H]thymidine incorporation in Swiss 3T3 cells (GRP-induced mitogenesis); type: cell-based, mouse; conditions: for Ability to inhibit mitogenesis stimulated by GRP (relative potency): substance P antagonists tested at 50 μM
Experimental: Cell culture procedure (33), assays of DNA synthesis by ^3 H-thymidine incorporation (34) and ^125 I-GRP binding to intact cells (13) were performed as described previously.
FIG. 3. Inhibition of GRP-induced DNA synthesis by [DPro^2 ]spantide (A) and [DPhe^5 ]spantide (D). […] After 40 hours DNA synthesis was estimated by [^3 H]thymidine incorporation into acid-precipitable material. […] Each point represents the mean of duplicate determinations. […] Values are expressed as a percentage of [^3 H]thymidine incorporation obtained in the absence of antagonists (100%=8.6×10^5 cpm per dish). Each point represents the mean of 4 determinations.

[5] = ^125 I-GRP 0.5 nM, 15° C., 2.5 h, EGS, each addition at its own concentration

| Compound | Mr 75000-85000 protein % of control [1, 5] | other results |
| --- | --- | --- |
| NC(=O)CC[C@@H]1NC(=O)[C@H](Cc2ccccc2)NC(=O)[C@H](Cc2ccc(O)cc2)NC(=O)[C@@H](N)CSSC[C@@H](C(=O)N2CCC[C@H]2C(=O)N[C@@H](CCCN=C(N)N)C(=O)NCC(N)=O)NC(=O)[C@H](CC(N)=O)NC1=O [Vasopressin] | 94 % of control |  |
| Substance K: neuropeptide | 94 % of control |  |
| CSCC[C@H](NC(=O)[C@H](CC(C)C)NC(=O)[C@H](Cc1c[nH]cn1)NC(=O)CNC(=O)[C@@H](NC(=O)[C@H](C)NC(=O)[C@H](Cc1c[nH]c2ccccc12)NC(=O)[C@H](Cc1c[nH]cn1)NC(=O)[C@H](CC(N)=O)NC(=O)CNC(=O)[C@H](CCCNC(=N)N)NC(=O)[C@@H]1CCCN1C(=O)[C@H](Cc1ccc(O)c(I)c1)NC(=O)[C@H](CCSC)NC(=O)[C@H](CCCCN)NC(=O)[C@H](C)NC(=O)[C@H](CC(C)C)NC(=O)[C@@H](NC(=O)[C@@H](NC(=O)CNC(=O)CNC(=O)CNC(=O)[C@@H](NC(=O)[C@H](CO)NC(=O)[C@@H](NC(=O)[C@@H]1CCCN1C(=O)[C@H](C)N)C(C)C)C(C)C)[C@@H](C)O)C(C)C)C(C)C)C(N)=O [^125 I-GRP] (H-APVSVGGGTVLAKM[Tyr(3-I)]PRGNHWAVGHLM-NH2; N-terminus and C-terminus assumed) |  | Kd ([1]; 15° C., 2.5 h, EGS 6 mM, read-out: Kd from double-reciprocal plot of cross-linking of ^125 I-GRP to the Mr 75000-85000 band): 1 nM |
| Insulin: mitogen for Swiss 3T3 cells | 90 % of control |  |
| GRP (1-16): the 1-16 amino acid (amino-terminal) fragment of GRP (VPLPAGGGTVLTKMYP; Gastrin-releasing peptide; UniProt P07492 24-39, looked up, fragment) | 93 % of control | Stimulation of DNA synthesis [2]: nor stimulates DNA synthesis; Inhibition of ^125 I-GRP binding [3]: neither inhibits ^125 I-GRP binding |
| CSCC[C@H](NC(=O)[C@H](CC(C)C)NC(=O)CNC(=O)[C@H](Cc1ccccc1)NC(=O)[C@H](Cc1ccccc1)NC(=O)[C@H](CCC(N)=O)NC(=O)[C@H](CCC(N)=O)NC(=O)[C@@H]1CCCN1C(=O)[C@H](CCCCN)NC(=O)[C@@H]1CCCN1C(=O)[C@@H](N)CCCNC(=N)N)C(N)=O [Substance P] | 91 % of control |  |
| GRP (14-27): the 14-27 amino acid fragment of GRP (MYPRGNHWAVGHLM; ends and bridges not checked; UniProt P07492 37-50, looked up, fragment) | 0.4 % of control |  |
| CSCC[C@H](NC(=O)[C@H](CC(C)C)NC(=O)[C@H](Cc1cnc[nH]1)NC(=O)CNC(=O)[C@@H](NC(=O)[C@H](C)NC(=O)[C@H](Cc1c[nH]c2ccccc12)NC(=O)[C@H](CCC(N)=O)NC(=O)[C@H](CC(N)=O)NC(=O)CNC(=O)[C@H](CC(C)C)NC(=O)[C@H](CCCN=C(N)N)NC(=O)[C@H](CCC(N)=O)NC(=O)[C@@H]1CCC(=O)N1)C(C)C)C(N)=O [Bombesin] |  | Mr 75000-85000 protein % of control [1]: 0.5 |
| HArgGlyGlnDTrpPheGlyAsp(OtBu)2 [J] |  | Ability to inhibit mitogenesis stimulated by GRP (relative potency) [4]: less potent than either A or D |
| CC(C)C[C@H](NC(=O)[C@H](CC(C)C)NC(=O)[C@@H](Cc1c[nH]c2ccccc12)NC(=O)[C@H](Cc1ccccc1)NC(=O)[C@@H](Cc1c[nH]c2ccccc12)NC(=O)[C@H](CCC(N)=O)NC(=O)[C@H](CCC(N)=O)NC(=O)[C@@H]1CCCN1C(=O)[C@H](CCCCN)NC(=O)[C@@H]1CCCN1C(=O)[C@H](N)CCCNC(=N)N)C(N)=O [B, DArgProLysProGlnGlnDTrpPheDTrpLeuLeuNH2] (H-[dR]PKPQQ[dW]F[dW]LL-NH2) |  | Antagonist activity against GRP-stimulated mitogenesis ([4]; even at 100 μM): no antagonist activity; Ability to inhibit mitogenesis stimulated by GRP (relative potency) [4]: less potent than either A or D |
| CC(C)C[C@H](NC(=O)[C@H](CC(C)C)NC(=O)[C@@H](Cc1c[nH]c2ccccc12)NC(=O)[C@H](Cc1ccccc1)NC(=O)[C@@H](Cc1c[nH]c2ccccc12)NC(=O)[C@H](CCC(N)=O)NC(=O)[C@H](CCC(N)=O)NC(=O)[C@@H]1CCCN1C(=O)[C@H](CCCCN)NC(=O)[C@H]1CCCN1C(=O)[C@H](N)CCCNC(=N)N)C(N)=O [Antagonist A, D-Arg-D-Pro-Lys-Pro-Gln-Gln-D-Trp-Phe-D-Trp-Leu-Leu-NH2] (H-[dR][dP]KPQQ[dW]F[dW]LL-NH2) | 9.7 % of control |  |
| C[C@H](N)C(=O)NCC(=O)N[C@H]1CSSC[C@@H](C(=O)O)NC(=O)[C@H](CO)NC(=O)[C@H]([C@@H](C)O)NC(=O)[C@H](Cc2ccccc2)NC(=O)[C@H]([C@@H](C)O)NC(=O)[C@H](CCCCN)NC(=O)[C@H](Cc2c[nH]c3ccccc23)NC(=O)[C@H](Cc2ccccc2)NC(=O)[C@H](Cc2ccccc2)NC(=O)[C@H](CC(N)=O)NC(=O)[C@H](CCCCN)NC1=O [Somatostatin] | 97 % of control |  |
| EGF: epidermal growth factor | 94 % of control |  |
| PDGF | 99 % of control |  |
| Litorin | 2 % of control |  |
